Assay: Solubility comparison of crystal modifications of the compound of the formula (I)
Type: physicochemical
Details: modification II versus known modification (modification I)

## O=C(NC[C@H]1CN(c2ccc(N3CCOCC3=O)cc2)C(=O)O1)c1ccc(Cl)s1 [modification II, 5-chloro-N-({(5S)-2-oxo-3-[4-(3-oxo-4-morpholinyl)-phenyl]-1,3-oxazolidin-5-yl}-methyl)-2-thiophenecarboxamide]
  solubility in comparison to the known modification: higher solubility

Source: US8188270B2, “Polymorphous form of 5-chloro-N-({(5S)-2-oxo-3[4-(3-oxo-4-morpholinyl)-phenyl]-1,3-oxazolidine-5-yl}-methyl)-2-thiophene carboxamide” (Bayer Schering Pharma Aktiengesellschaft, priority 2005, dated 2012)
